For experiment [1], the target named is T1, Toll-like receptor 7 (Homo sapiens, UniProt Q9NYK1).
T1 sequence (Q9NYK1 whole entry): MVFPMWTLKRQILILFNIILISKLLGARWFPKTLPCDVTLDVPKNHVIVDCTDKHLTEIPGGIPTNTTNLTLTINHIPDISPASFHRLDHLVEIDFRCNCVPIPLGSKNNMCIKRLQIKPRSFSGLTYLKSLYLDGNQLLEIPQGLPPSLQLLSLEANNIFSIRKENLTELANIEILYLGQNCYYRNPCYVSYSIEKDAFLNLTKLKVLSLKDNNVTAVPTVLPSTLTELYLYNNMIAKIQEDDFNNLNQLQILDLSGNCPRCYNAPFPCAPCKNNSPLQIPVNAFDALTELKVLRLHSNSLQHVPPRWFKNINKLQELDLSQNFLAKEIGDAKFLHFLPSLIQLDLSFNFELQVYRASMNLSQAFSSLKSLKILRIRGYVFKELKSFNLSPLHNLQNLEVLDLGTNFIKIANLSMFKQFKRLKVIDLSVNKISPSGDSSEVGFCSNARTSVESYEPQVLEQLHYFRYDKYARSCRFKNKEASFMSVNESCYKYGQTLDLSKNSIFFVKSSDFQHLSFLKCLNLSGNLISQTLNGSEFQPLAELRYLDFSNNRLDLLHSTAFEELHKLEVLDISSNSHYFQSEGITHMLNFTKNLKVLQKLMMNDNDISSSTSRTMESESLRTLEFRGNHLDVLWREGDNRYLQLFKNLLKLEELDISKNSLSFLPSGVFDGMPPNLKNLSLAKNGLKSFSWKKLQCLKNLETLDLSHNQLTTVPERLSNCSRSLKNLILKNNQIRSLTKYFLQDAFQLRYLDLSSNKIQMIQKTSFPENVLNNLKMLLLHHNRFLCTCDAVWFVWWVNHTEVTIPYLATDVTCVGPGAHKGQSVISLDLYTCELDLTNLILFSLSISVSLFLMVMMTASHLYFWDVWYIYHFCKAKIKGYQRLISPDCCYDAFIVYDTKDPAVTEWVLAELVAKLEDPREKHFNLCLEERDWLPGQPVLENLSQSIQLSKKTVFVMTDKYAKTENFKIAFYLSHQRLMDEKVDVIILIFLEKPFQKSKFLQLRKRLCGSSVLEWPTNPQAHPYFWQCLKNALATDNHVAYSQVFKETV
Description: Agonist activity at TLR7 (unknown origin) expressed in HEK-Blue cells. Type of experiment: cell-based.

Experiment [2] concerns the target T2, Toll-like receptor 8 (Homo sapiens, UniProt Q9NR97).
T2 sequence (Q9NR97 whole entry): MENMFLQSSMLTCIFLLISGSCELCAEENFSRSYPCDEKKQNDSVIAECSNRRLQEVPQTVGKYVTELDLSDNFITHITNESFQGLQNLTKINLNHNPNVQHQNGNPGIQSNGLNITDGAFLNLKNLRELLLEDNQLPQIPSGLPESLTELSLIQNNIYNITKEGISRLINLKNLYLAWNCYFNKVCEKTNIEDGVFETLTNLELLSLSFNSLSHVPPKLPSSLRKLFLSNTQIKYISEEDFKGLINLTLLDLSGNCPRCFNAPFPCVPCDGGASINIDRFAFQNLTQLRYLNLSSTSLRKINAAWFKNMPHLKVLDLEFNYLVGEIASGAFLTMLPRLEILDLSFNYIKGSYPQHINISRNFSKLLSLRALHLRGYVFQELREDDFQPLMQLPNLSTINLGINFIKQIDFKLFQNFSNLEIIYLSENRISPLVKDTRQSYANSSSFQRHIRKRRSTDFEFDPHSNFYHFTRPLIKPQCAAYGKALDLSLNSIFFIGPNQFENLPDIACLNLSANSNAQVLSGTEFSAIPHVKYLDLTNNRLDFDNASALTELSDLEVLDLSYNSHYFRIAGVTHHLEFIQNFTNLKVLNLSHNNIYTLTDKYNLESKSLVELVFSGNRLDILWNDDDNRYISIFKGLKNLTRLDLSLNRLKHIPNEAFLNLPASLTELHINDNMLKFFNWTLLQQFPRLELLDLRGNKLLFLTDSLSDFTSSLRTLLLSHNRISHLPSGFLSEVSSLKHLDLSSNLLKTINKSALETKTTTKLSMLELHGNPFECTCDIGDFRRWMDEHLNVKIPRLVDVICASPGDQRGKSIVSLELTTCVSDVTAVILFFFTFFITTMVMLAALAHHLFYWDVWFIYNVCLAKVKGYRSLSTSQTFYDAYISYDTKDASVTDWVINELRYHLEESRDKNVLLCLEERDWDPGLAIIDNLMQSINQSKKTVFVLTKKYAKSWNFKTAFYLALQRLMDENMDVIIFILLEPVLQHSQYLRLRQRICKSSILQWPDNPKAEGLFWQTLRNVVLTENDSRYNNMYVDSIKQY
As to the kind of experiment: Agonist activity at TLR8 (unknown origin) expressed in HEK-Blue cells. Type of experiment: cell-based.

Take `CCN(Cc1nc2c(N)nc3cc(-c4cc[nH]n4)ccc3c2n1C)C(=O)OC(C)(C)C`: the EC50 in experiment [1] and in experiment [2] was greater than 100 µM in each case.
With `Nc1nc2cc(-c3ccccc3)ccc2c2[nH]c(CN3CCCC3=O)nc12`, the EC50 in experiment [1] and in experiment [2] was greater than 100 µM in each case.
Turning to `CCN(Cc1nc2c(N)nc3cc(-c4ccccc4)ccc3c2[nH]1)C(C)=O`, the EC50 in experiment [1] and in experiment [2] was greater than 100 µM throughout.
Consider `Nc1nc2cc(-c3ccccc3F)ccc2c2[nH]c(CN3CCCC3=O)nc12`, for which the EC50 in experiment [1] and in experiment [2] was greater than 100 µM each time.
In the case of `CCN(Cc1nc2c(N)nc3cc(C4=CCCC4)ccc3c2[nH]1)C(C)=O`, the EC50 in experiment [1] and in experiment [2] was greater than 100 µM in each case.
Take `CCn1c(CN2CCCC2=O)nc2c(N)nc3cc(-c4cccs4)ccc3c21`: the EC50 in experiment [1] and in experiment [2] was greater than 100 µM throughout.
In the case of `CCC(=O)N(CC)Cc1nc2c(N)nc3cc(-c4ccn[nH]4)ccc3c2n1CC`, the EC50 in experiment [1] and in experiment [2] was greater than 100 µM in each case.
With `CCN(C)Cc1nc2c(N)nc3cc(-c4cc[nH]n4)ccc3c2[nH]1`, the EC50 in experiment [1] and in experiment [2] was greater than 100 µM throughout.
For `Cc1cccc(-c2ccc3c(c2)nc(N)c2nc(CN4CCCC4=O)[nH]c23)c1`, the EC50 in experiment [1] and in experiment [2] was greater than 100 µM throughout.
Take `Cc1ccc(-c2ccc3c(c2)nc(N)c2nc(CN4CCCC4=O)[nH]c23)cc1`: the EC50 in experiment [1] and in experiment [2] was greater than 100 µM each time.
With `Nc1nc2cc(-c3cccs3)ccc2c2[nH]c(CN3CCCC3=O)nc12`, the EC50 in experiment [1] and in experiment [2] was greater than 100 µM in each case.
Turning to `Nc1nc2cc(-n3cccn3)ccc2c2[nH]c(CN3C[C@H](c4ccccc4)CC3=O)nc12`, the EC50 in experiment [1] and in experiment [2] was greater than 100 µM each time.

The values above are taken from ChEMBL document CHEMBL4265998, “NLRP3 Modulators for the Treatment of Autoinflammatory Disorders” (ACS Med Chem Lett, 2018).
